# Assay results published in patent US12071469B2, “Peptide compounds for suppressing inflammation” (Duke University, priority 2011, dated 2024).
# Assay: VSRRR quantitation in mouse plasma by LC/SIM/MS after intravenous dosing
# Format: in vivo
# Details: IV single dose 0.8 mg/kg
# Experimental: The amount of the ApoE mimetic peptide VSRRR (SEQ ID NO:4) in blood plasma and CNS was determined as follows:
# VSRRR Quantitation in Mouse Plasma Using LC/Selected Ion Monitoring (SIM)/MS
# 48 μL aliquots of mouse plasma were measured into the wells of a 2 mL 96-well plate. 6 μL of a stable isotope labeled (SIL) form of the VSRRR peptide (“VSRRR[10]”; SEQ ID NO:4) (5 picomoles/μL in 50 mM ammonium bicarbonate, pH 8, buffer) was added. 6 μL of a synthetic form of the VSRRR peptide (“VSRRR”; SEQ ID NO:4) in 50 mM Ammonium bicarbonate was added for standards and quality controls (QCs) and an equivalent volume of 50 mM ammonium bicarbonate was added to all wells containing mouse PK samples. 1140 μL of 50 mM ammonium formate, pH 10, was added for a final volume of 1200 μL. Salts and proteins were removed using OASIS® HLB Solid Phase Extraction (SPE) protocol as follows: • 1. 500 μL methanol (MeOH) through each well×1. • 2. 500 μL 25% acetonitrile (ACN)/1% trifluoroacetic acid (TFA)×1 (as pre-elution). • 3. 500 μL MeOH×1 • 4. 500 μL 50 mM ammonium formate×2 • 5. 1 mL of each sample mixture was pipetted directly onto an OASIS® HLB plate (hydrophilic-lipophilic-balanced reversed-phase sorbent; Waters Corp.) into a corresponding well and slowly vacuumed through • 6. 500 μL 50 mM ammonium formate×1 • 7. 500 μL 10% ACN/50 mM ammonium formate×2 • 8. 500 μL 25% ACN/50 mM ammonium formate×1 • 9. Removed plate collecting washes/flowthrough, and put in collection plate • 10. Eluted with 100 μL 25% ACN/1% TFA×3, eluting with vacuum slowly. The final eluate should be approximately 300 μL.
# The SPE eluate was dried using a vacuum centrifuge. The sample was reconstituted in 50 μL of buffer containing 1% acetonitrile (ACN), 0.1% trifluoroacetic acid (TFA), and 0.02% heptafluorobutyric acid (HFBA). Two microliters of reconstituted sample was analyzed by nanoscale capillary LC coupled to a high resolution, accurate mass tandem mass spectrometer. Specifically, the electrospray ionization source with NanoLockSpray™ (Waters Corp.) and nanoAcquity UPLC® system (Waters Corp.) were used with a nanoscale LC column (1.7 μm BEH130 C18 150 μm ID×100 mm long; Waters Corp.), 10-min gradient of 3% to 19% ACN with 0.1% formic acid (mobile phase A=0.1% formic acid/0.001% HFBA) with a total LC run time of 16.5 minutes, flow rate=1.8 μL/min and 35° C. column temperature. A SYNAPT™ G1 HDMS™ high resolution mass spectrometer (Waters Corp.) was used. Full Scan MS data was obtained over the mass region of 50-4000 Da using an Enhanced Duty Cycle scan function at 360 Da.
# VSRRR and VSRRR[10] amounts were quantitated by measuring the area under the curve (AUC) of the Selected Ion Chromatograms of the doubly charged ions at high resolution (m/z 357.7 and 362.7). The final VSRRR quantitation amount was determined using the ratio of the AUCs (VSRRR/VSRRR[10]). The ratios from 5 animals were averaged per time point and calibration standards were used to generate a standard curve. Duplicate aliquots of QC samples were analyzed by LC/MS in triplicate to determine analytical reproducibility.
# The lower level of quantitation (LLOQ) is indicated.
substance,measurement,setting,value
"Ac-VSRRR-NH2 [VR-55, Ac-VSRRR-NH2]",Ratio Light/Heavy across 5 animals,1 min,0.079
same,amount of peptide in plasma,1 min,32.2 fmol/µL
same,Ratio Light/Heavy across 5 animals,3 min,0.134
same,amount of peptide in plasma,3 min,51.8 fmol/µL
same,Ratio Light/Heavy across 5 animals,5 min,0.077
same,amount of peptide in plasma,5 min,31.7 fmol/µL
same,Ratio Light/Heavy across 5 animals,10 min,0.058
same,amount of peptide in plasma,10 min,24.9 fmol/µL
same,Ratio Light/Heavy across 5 animals,15 min,0.044
same,amount of peptide in plasma,15 min,19.6 fmol/µL
same,Ratio Light/Heavy across 5 animals,30 min,0.016
same,amount of peptide in plasma,30 min,9.9 fmol/µL
same,Ratio Light/Heavy across 5 animals,60 min,0.012
same,amount of peptide in plasma,60 min,8.5 fmol/µL
